Marks after values point to notes of the source that are not given here.
Assays:
[1] = Pilot study for gliotoxin toxicity in rats; type: in vivo, rat; settings: 3 mg/kg body weight
[2] = system: carbon tetrachloride model of liver fibrosis; assay: Carbon tetrachloride (in vivo) model of liver fibrosis, single gliotoxin injection; parameters: species or system rat; settings: for Serum ALP / Serum ALT: killed 24 hours after gliotoxin
Experimental: (§1) Rats were randomly sorted into groups and treated with 2 mL CCl4:olive oil (1:1 [vol/vol])/kg body weight by intraperitoneal injection twice weekly to cause liver fibrosis. Control animals were treated with 1 mL olive oil/kg body weight by intraperitoneal injection. Gliotoxin was administered at up to 3 mg gliotoxin/kg body weight by intraperitoneal injection. Gliotoxin was dissolved in dimethyl sulfoxide (DMSO) as a vehicle, and control animals received DMSO alone.
(§2) At the required time, rats were killed by carbon dioxide asphyxiation and tissues removed for analysis. Serum was prepared and analyzed for alkaline phosphatase and alanine aminotransferase activities essentially as previously described. (Wright et al., Biochem. Pharmacol., (1992) 43:237-243) Histochemical staining of formalin-fixed liver sections with H&E, Sirius red, and immunochemical staining for α-smooth muscle actin were performed essentially as previously described (Iredale et al.,—1998—supra)
The effect of a single injection of gliotoxin on α-smooth muscle actin liver immunostaining after treatment for seven weeks with carbon tetrachloride was then determined. One day after the final injection of carbon tetrachloride, rats were administered gliotoxin and killed after a further day.
The effect of a single injection of gliotoxin on liver TUNEL staining after treatment for seven weeks with carbon tetrachloride was measured. One day after the final injection of carbon tetrachloride, rats were administered gliotoxin and then killed after a further day. Control animals received DMSO alone in place of gliotoxin. Liver sections from the rats were TUNEL stained with or without the incorporation of dUTP in the staining protocol. Sections were then counterstained with hematoxylin.
The effect of a single injection of gliotoxin on liver sirius red staining after treatment for seven weeks with carbon tetrachloride was then determined. As before, one day after the final injection of carbon tetrachloride, rats were administered gliotoxin and killed after a further day.

[3] = system: carbon tetrachloride model of liver fibrosis; assay: Carbon tetrachloride (in vivo) model of liver fibrosis, weekly gliotoxin injection; parameters: species or system rat; settings: for Liver α-sma staining (number of α-sma-positive cells) / Serum ALP / Serum ALT / Sirius red staining (mid intralobular μm): weekly gliotoxin injection 3 mg/kg i.p.
Experimental: as §1, §2

[4] = system: caspase-3 activity in hepatic stellate cells; assay: Caspase-3 activity in cycloheximide-treated hepatic stellate cells; type: cell-based; settings: 50 μM cycloheximide
Experimental: Apoptosis was quantified by a colorimetric assay for caspase-3 activity (Promega) according to the manufacturer's instructions.
Caspase-3 is a central caspase in the proapoptotic cascade (Hengartner, Nature (2000) 407, 770-776) and can be used as an alternative assay to assess apoptosis. Hepatic stellate cells were cultured in 50 μM cycloheximide with TIMP-1 at a concentration of 0, 1, 10, or 100 ng/ml. Controls where cells were incubated with either the caspase 3 inhibitor benzyloxycarbonyl-Val-Ala-Asp-fluoromethylketone or serum alone were also performed. Data are expressed as mean ±S.E. and are presented as percentage of control given the arbitrary value of 100%. * indicates p<0.001; n=3. […] Although the mean caspase-3 activity of the cells treated with 10 ng/ml TIMP-1 was slightly lower than that treated with 100 ng/ml of TIMP-1, this was not statistically significant (p=0.67 by Student's t test).

hepatic stellate cells = assay: TUNEL staining of cycloheximide-treated hepatic stellate cells; type: cell-based; settings: 50 μM cycloheximide 18 h; TIMP-1 100 ng/ml
Experimental: Hepatic stellate cells were cultured on glass chamber slides and then exposed to 50 μM cycloheximide for 18 h with and without TIMP-1 (100 ng/ml). Slides were then stained for DNA fragmentation characteristic of apoptosis by the TUNEL reaction as previously described (Iredale et al., J. Clin. Invest., (1998) 102, 538-549) with the modifications recently described to reduce false positively (Stahelin et al., Mol. Pathol., (1998) 51, 204-208). Each slide was then analyzed by a blinded observer who counted the number of TUNEL-positive apoptotic figures and the TUNEL-negative cells over 10 high power fields for each condition.
A further pathognomonic feature of apoptosis is the fragmentation of DNA into oligonucleosomal lengths (Evan et al., Cell (1992) 69: 119-128). Fragmented DNA can be identified by the TUNEL technique, which can therefore be used to further quantify the apoptotic response of hepatic stellate cells in the presence and absence of cycloheximide. To assess DNA fragmentation activated hepatic stellate cells were therefore induced to undergo apoptosis by cycloheximide treatment in the presence and absence of TIMP-1 and the number of TUNEL positive cells assessed. […] As a control cells which were treated with serum alone were analyzed. […]

[5] = system: rat hepatic stellate cells; assay: Hepatic stellate cell proliferation (tritiated thymidine); type: cell-based; settings: TIMP-1 1-100 ng/ml, 24 hour incubation, versus BSA carrier
Experimental: Hepatic stellate cells were cultured in 24-well tissue culture plates. These were washed with serum-free medium for 24 h, and then the cells were exposed to TIMP-1 at a concentration range of 1-100 ng/ml for 24 h and then pulsed with tritiated thymidine (0.5 μCi/well) for 18 hours before scintillation counting as previously described (Boulton et al., Clin. Sci., (1995) 88:119-130).

[6] = single gliotoxin injection 0.3 mg/kg i.p., CCl4 twice weekly seven weeks
[7] = single gliotoxin injection 0.3 mg/kg i.p., no CCl4 (olive oil seven weeks)
[8] = single gliotoxin injection 3 mg/kg i.p., CCl4 twice weekly seven weeks
[9] = single gliotoxin injection 3 mg/kg i.p., no CCl4 (olive oil seven weeks)

CN1C(=O)[C@]23CC4=CC=C[C@H](O)[C@H]4N2C(=O)[C@@]1(CO)SS3 [gliotoxin]
apparent ill effects [1]: did not cause any apparent ill effects in rats | hepatic damage on histologic sections of the liver [1]: no evidence of hepatic damage | reduction in number of α-smooth muscle actin-positive cells in CCl4 treated rat liver ([2]; single dose of 3 mg/kg body wt): 57% | Liver α-sma staining (number of α-sma-positive cells) [2, 6]: 35 ± 11.4 | Sirius red staining (mid intralobular μm) [2, 6]: 9 ± 2.3 μm | Serum ALP [2, 6]: 790 ± 128 μ/mL | Serum ALT [2, 6]: 1310 ± 342 μ/mL | Liver α-sma staining (number of α-sma-positive cells) [2, 7]: 2.5 ± 0.70 | Sirius red staining (mid intralobular μm) [2, 7]: 0 μm | Serum ALP [2, 7]: 336 ± 48 μ/mL | Serum ALT [2, 7]: 59 ± 4 μ/mL | Liver α-sma staining (number of α-sma-positive cells) [2, 8]: 16 ± 6.4 | Sirius red staining (mid intralobular μm) [2, 8]: 7 ± 3.6^£ μm | Serum ALP [2, 8]: 755 ± 295 μ/mL | Serum ALT [2, 8]: 1740 ± 1100 μ/mL | Liver α-sma staining (number of α-sma-positive cells) [2, 9]: 1.2 ± 0.24 | Sirius red staining (mid intralobular μm) [2, 9]: 0 μm | Serum ALP [2, 9]: 269 ± 25 μ/mL | Serum ALT [2, 9]: 50 ± 5 μ/mL | TUNEL-positive cells in liver regions staining for α-smooth muscle actin ([2]; single gliotoxin injection after seven weeks CCl4): increase in the number of TUNEL-positive cells | fibrosis on blinded examination of sirius red stained liver sections ([2]; single injection of gliotoxin at 3 mg/kg after seven weeks CCl4): significantly reduced fibrosis | change in serum liver enzyme levels ([2]; single injection of gliotoxin to control or carbon tetrachloride treated rats): did not result in any significant change in serum liver enzyme levels | liver serum enzymes caused by carbon tetrachloride treatment ([3]; gliotoxin administered during CCl4 treatment): significantly reduces the levels of liver serum enzymes | number of activated hepatic stellate cells and thickness of fibrotic bands ([3]; gliotoxin administered during the liver insult (CCl4)): significantly reduces the number of activated hepatic stellate cells and thickness of fibrotic bands | hepatotoxicity of long term administration ([3]; weekly gliotoxin): no evidence that long term administration of gliotoxin is itself hepatotoxic | Liver α-sma staining (number of α-sma-positive cells) ([3]; CCl4 twice weekly 4 weeks): 6 ± 1.2 | Serum ALP ([3]; CCl4 twice weekly 4 weeks): 429 ± 25^a μ/mL | Serum ALT ([3]; CCl4 twice weekly 4 weeks): 300 ± 111^b μ/mL | Sirius red staining (mid intralobular μm) ([3]; CCl4 twice weekly 4 weeks): 4.6 ± 3.1^£ μm | Liver α-sma staining (number of α-sma-positive cells) ([3]; no CCl4 (olive oil 4 weeks)): 1.4 ± 1.38 | Serum ALP ([3]; no CCl4 (olive oil 4 weeks)): 249 ± 26 μ/mL | Serum ALT ([3]; no CCl4 (olive oil 4 weeks)): 89 ± 58 μ/mL | Sirius red staining (mid intralobular μm) ([3]; no CCl4 (olive oil 4 weeks)): 0 μm

TIMP-1: recombinant tissue inhibitor of matrix metalloproteases 1 (Biogenesis)
reduction in caspase-3 activity ([4]; TIMP-1 10 ng/ml): 50% | reduction in apoptosis measured by caspase-3 activity ([4]; TIMP-1 100 ng/ml): 50% | caspase-3 activity ([4]; TIMP-1 1-100 ng/ml): dose-dependent reduction in caspase-3 activity | cells containing fragmented DNA (TUNEL) (hepatic stellate cells): significantly reduced numbers of cells containing fragmented DNA | proliferation of rat hepatic stellate cells [5]: had no effect on proliferation
